Measurements as given in patent publication US8927498B2, “Compositions and methods useful in enhancement of memory” (The Translational Genomics Research Institute, priority 2010, dated 2015).

Tested on: hippocampal transcripts (mitochondrial pathway genes and genes associated with neurological function)
Test: transcriptome examination using RNA-Seq, hippocampus
Format: in vivo, rat
Excerpt: Transcriptome Examination Using RNA-Seq Upon MARCKS Peptide Decoy Treatment
Following sacrifice, the left hippocampus was utilized for genome-wide expression profiling. […] These included Adcyap1 with fold change (FC) of 1.5, and p=0.029, Tiam1 with FC of −1.5 and p=0.028, and Filip1 with FC of −1.75 and p=0.032 (Table 1). The RT-PCR validation of the fold change of FILIP1 and Tiam1 is shown in Table 2 and Table 3, respectively.
Table 4 disclosed herein provides the major pathways in mitochondria altered in the MARCKS peptide decoy treated animals. Mitochondrial NADH dehydrogenase is a key enzyme in the oxidative phosphorylation pathway in the mitochondria. Mitochondrially encoded cytochrome c oxidase I (MT-CO1), also known as cytochrome c oxidase I (COX1), is a protein that is found in mitochondria. Cytochrome c oxidase is the component of the respiratory chain that catalyzes the reduction of oxygen to water. MT-CO1 is associated with aging. Mutations in the human MT-CO1 gene have been associated with several diseases, including neurodegenerative diseases, such as late-onset Alzheimer disease. Cytochrome b (mt-cyb) is a component of the ubiquinol-cytochrome c reductase complex (complex III or cytochrome b-c1 complex), which is a respiratory chain that generates an electrochemical potential coupled to ATP synthesis. ATP synthase F0 subunit 6 (or subunit/chain A) is a subunit of F0 complex of transmembrane F-type ATP synthase. This subunit is a key component of the proton channel, and may play a direct role in the translocation of protons across the membrane. ATP6 is a gene associated with neuropathy, ataxia, and retinitis pigmentosa. mt-ATP8 is another subunit involved in ATP biosynthetic process.
Table 5 provides the list of the genes that are directly or indirectly associated with neurological function and are with significant fold change in peptide decoy treated animals in comparison to the controls.

[1] = locus chrM: 9450-9798, vehicle 617.42

Substance: SEQ ID NO: 1: fusion peptide including a TAT protein transduction domain and residues surrounding two known serine phosphorylation targets (Ser159 and Ser163) within MARCKS (YGRKKRRQRRRCKRFSFKKSFKLSGFSFKK; TAT MARCKS fusion)
- Ln (Fold Change) (M/V), Calm3 (locus chr1: 77244168-77252808): 1.894
- MARCKS FPKM, Calm3 (locus chr1: 77244168-77252808, vehicle 856.54): 1621.94 FPKM
- Ln (Fold Change) (M/V), Fth1 (locus chr1: 212430422-212432741): 1.397
- MARCKS FPKM, Fth1 (locus chr1: 212430422-212432741, vehicle 354.58): 495.44 FPKM
- Ln (Fold Change) (M/V), P97600_RAT (locus chr1: 249369571-249369889): 0.7544
- MARCKS FPKM, P97600_RAT (locus chr1: 249369571-249369889, vehicle 492.68): 371.65 FPKM
- Ln (Fold Change) (M/V), Selt (locus chr2: 147913244-147929296): 0.5377
- MARCKS FPKM, Selt (locus chr2: 147913244-147929296, vehicle 214.44): 115.30 FPKM
- Ln (Fold Change) (M/V), Snap25 (locus chr3: 124860288-124894636): 0.8176
- MARCKS FPKM, Snap25 (locus chr3: 124860288-124894636, vehicle 750.47): 613.59 FPKM
- Ln (Fold Change) (M/V), Ywhab (locus chr3: 154926026-155140469): 0.5137
- MARCKS FPKM, Ywhab (locus chr3: 154926026-155140469, vehicle 131.57): 67.59 FPKM
- Ln (Fold Change) (M/V), Sdcbp (locus chr5: 19822457-19849209): 0.666
- MARCKS FPKM, Sdcbp (locus chr5: 19822457-19849209, vehicle 131.61): 87.65 FPKM
- Ln (Fold Change) (M/V), Rraga (locus chr5: 105659673-105661250): 0.4798
- MARCKS FPKM, Rraga (locus chr5: 105659673-105661250, vehicle 433.02): 207.77 FPKM
- Ln (Fold Change) (M/V), HPCA_RAT (locus chr5: 148268061-148276223): 2.229
- MARCKS FPKM, HPCA_RAT (locus chr5: 148268061-148276223, vehicle 141.44): 315.32 FPKM
- Ln (Fold Change) (M/V), RTN1_RAT (locus chr6: 94397064-94426283): 1.726
- MARCKS FPKM, RTN1_RAT (locus chr6: 94397064-94426283, vehicle 842.08): 1453.43 FPKM
- Ln (Fold Change) (M/V), Tuba1b (locus chr7: 137706855-137709839): 0.5387
- MARCKS FPKM, Tuba1b (locus chr7: 137706855-137709839, vehicle 219.23): 118.09 FPKM
- Ln (Fold Change) (M/V), Ywhae (locus chr10: 63072127-63109833): 0.6546
- MARCKS FPKM, Ywhae (locus chr10: 63072127-63109833, vehicle 892.66): 584.35 FPKM
- Ln (Fold Change) (M/V), Aldoc (locus chr10: 64308825-64312415): 0.5322
- MARCKS FPKM, Aldoc (locus chr10: 64308825-64312415, vehicle 140.11): 74.57 FPKM
- Ln (Fold Change) (M/V), Ndrg2 (locus chr15: 27338551-27347196): 0.4224
- MARCKS FPKM, Ndrg2 (locus chr15: 27338551-27347196, vehicle 142.86): 60.35 FPKM
- Ln (Fold Change) (M/V), Calm-ps2 (locus chr15: 64161641-64162753): 0.7792
- MARCKS FPKM, Calm-ps2 (locus chr15: 64161641-64162753, vehicle 383.97): 299.19 FPKM
- Ln (Fold Change) (M/V), Gpm6a (locus chr16: 39670749-39783384): 0.5709
- MARCKS FPKM, Gpm6a (locus chr16: 39670749-39783384, vehicle 311.49): 177.84 FPKM
- Ln (Fold Change) (M/V), Slc25a4 (locus chr16: 49353475-49357271): 1.571
- MARCKS FPKM, Slc25a4 (locus chr16: 49353475-49357271, vehicle 243.91): 383.20 FPKM
- Ln (Fold Change) (M/V), Mt3 (locus chr19: 11284554-11286402): 1.316
- MARCKS FPKM, Mt3 (locus chr19: 11284554-11286402, vehicle 301.07): 396.12 FPKM
- Ln (Fold Change) (M/V), Non-Annotated (locus chrM: 67-1025): 0.8288
- MARCKS FPKM, Non-Annotated (locus chrM: 67-1025, vehicle 69491.10): 57596.80 FPKM
- Ln (Fold Change) (M/V), Non-Annotated (locus chrM: 1093-2664): 0.6921
- MARCKS FPKM, Non-Annotated (locus chrM: 1093-2664, vehicle 53178.50): 36802.40 FPKM
- Ln (Fold Change) (M/V), Mitochondrial NADH dehydrogenase subunit 1 mt-nd1 (locus chrM: 2739-3831): 0.7838
- MARCKS FPKM, Non-Annotated (locus chrM: 2739-3831, vehicle 51.90): 0.00 FPKM
- MARCKS FPKM, Non-Annotated (locus chrM: 2739-3831, vehicle 126.72): 0.00 FPKM
- MARCKS FPKM, Mitochondrial NADH dehydrogenase subunit 1 mt-nd1 (locus chrM: 2739-3831, vehicle 1879.89): 1473.47 FPKM
- Ln (Fold Change) (M/V), Non-Annotated (locus chrM: 2739-3831, vehicle FPKM 51.90): 0
- Ln (Fold Change) (M/V), Non-Annotated (locus chrM: 2739-3831, vehicle FPKM 126.72): 0
- Ln (Fold Change) (M/V), Mitochondrial NADH dehydrogenase subunit 2 mt-nd2 (locus chrM: 3903-5008): 0.5713
- MARCKS FPKM, Mitochondrial NADH dehydrogenase subunit 2 mt-nd2 (locus chrM: 3903-5008, vehicle 1965.45): 1122.94 FPKM
- Ln (Fold Change) (M/V), Cytochrome c oxidase subunit I mt-co1 (locus chrM: 5322-6933): 0.7397
- Ln (Fold Change) (M/V), Non-Annotated (locus chrM: 5322-6933): 0
- MARCKS FPKM, Non-Annotated (locus chrM: 5322-6933, vehicle 321.91): 0.00 FPKM
- MARCKS FPKM, Cytochrome c oxidase subunit I mt-co1 (locus chrM: 5322-6933, vehicle 9734.89): 7200.89 FPKM
- Ln (Fold Change) (M/V), Cytochrome c oxidase subunit 2 mt-co2 (locus chrM: 7005-7689): 0.6512
- MARCKS FPKM, Cytochrome c oxidase subunit 2 mt-co2 (locus chrM: 7005-7689, vehicle 5773.44): 3759.79 FPKM
- Ln (Fold Change) (M/V), ATP synthase F0 subunit 6 mt-ATP6 (locus chrM: 7757-9382): 0.5529
- Ln (Fold Change) (M/V), ATP synthase F0 subunit 8 mt-ATP8 (locus chrM: 7757-9382): 0.7137
- Ln (Fold Change) (M/V), Cytochrome c oxidase subunit 3 mt-co3 (locus chrM: 7757-9382): 0.5326
- MARCKS FPKM, ATP synthase F0 subunit 6 mt-ATP6 (locus chrM: 7757-9382, vehicle 3257.55): 1801.13 FPKM
- MARCKS FPKM, ATP synthase F0 subunit 8 mt-ATP8 (locus chrM: 7757-9382, vehicle 3627.88): 2589.08 FPKM
- MARCKS FPKM, Cytochrome c oxidase subunit 3 mt-co3 (locus chrM: 7757-9382, vehicle 5137.18): 2736.25 FPKM
- Ln (Fold Change) (M/V), Mitochondrial NADH dehydrogenase subunit 3 mt-nd3 (locus chrM: 9450-9798): 0.5255
- Ln (Fold Change) (M/V), NU3M_RAT (locus chrM: 9450-9798): 0.5255
- MARCKS FPKM, Mitochondrial NADH dehydrogenase subunit 3 mt-nd3 [1]: 324.46 FPKM
- MARCKS FPKM, NU3M_RAT [1]: 324.46 FPKM
- Ln (Fold Change) (M/V), Mitochondrial NADH dehydrogenase subunit 4 mt-nd4 (locus chrM: 9869-11537): 0.6903
- Ln (Fold Change) (M/V), NADH dehydrogenase subunit 4L mt-ND4L (locus chrM: 9869-11537): 0.7182
- MARCKS FPKM, Mitochondrial NADH dehydrogenase subunit 4 mt-nd4 (locus chrM: 9869-11537, vehicle 2440.82): 1684.95 FPKM
- MARCKS FPKM, NADH dehydrogenase subunit 4L mt-ND4L (locus chrM: 9869-11537, vehicle 5804.14): 4168.41 FPKM
- Ln (Fold Change) (M/V), Mitochondrial NADH dehydrogenase subunit 5 mt-nd5 (locus chrM: 11735-14061): 0.8563
- Ln (Fold Change) (M/V), Mitochondrial NADH dehydrogenase subunit 6 mt-nd6 (locus chrM: 11735-14061): 0.4947
- MARCKS FPKM, Mitochondrial NADH dehydrogenase subunit 6 mt-nd6 (locus chrM: 11735-14061, vehicle 1073.10): 530.91 FPKM
- MARCKS FPKM, Mitochondrial NADH dehydrogenase subunit 5 mt-nd5 (locus chrM: 11735-14061, vehicle 2920.80): 2501.19 FPKM
- Ln (Fold Change) (M/V), Cytochrome b (mt-cyb) (locus chrM: 14135-15278): 0.7536
- MARCKS FPKM, Cytochrome b (mt-cyb) (locus chrM: 14135-15278, vehicle 2792.49): 2104.37 FPKM
- Ln (Fold Change) (M/V), Gdi1 (locus chrX: 160299116-160305777): 0.6667
- MARCKS FPKM, Gdi1 (locus chrX: 160299116-160305777, vehicle 124.22): 82.82 FPKM
